Results as given in PubChem BioAssay AID1918944 (Molecular Pharmacology Branch, DTP, NCI, 2023).
Several values for one entry are separate records, joined by “and”; a condition that tells them apart may be missing. Identical values can stand only once.

Tested on: 786-0 complex spheroid viability
Assay: Anticancer human tumor 786-0 cell line growth inhibition;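 further: spheroids exposed to agents for seven days before readout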
Details: for viability, T/C: stronger effect = lower value
Procedure, shortened: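 Multicellular complex spheroids of tumor cells with human endothelial cells (HUVEC) and mesenchymal stem cells; the LSD1 inhibitor iadademstat was combined with standard-of-care or investigational agents. Top concentration at or near clinical Cmax, half-log dilutions; final DMSO ≤0.25%.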

[1] = curve of first compound, second compound 0.1 µM
[2] = curve of first compound, second compound 0.316 µM
[3] = curve of first compound, second compound 1 µM
[4] = curve of first compound, second compound 3.16 µM
[5] = curve of first compound, second compound 10 µM
[6] = second compound 0.1 µM, first compound 0.00316 µM
[7] = second compound 0.1 µM, first compound 0.01 µM
[8] = second compound 0.1 µM, first compound 0.0316 µM
[9] = second compound 0.1 µM, first compound 0.1 µM
[10] = second compound 0.1 µM, first compound 0.316 µM
[11] = second compound 0.1 µM, first compound 1 µM
[12] = second compound 0.316 µM, first compound 0.00316 µM
[13] = second compound 0.316 µM, first compound 0.01 µM
[14] = second compound 0.316 µM, first compound 0.0316 µM
[15] = second compound 0.316 µM, first compound 0.1 µM
[16] = second compound 0.316 µM, first compound 0.316 µM
[17] = second compound 0.316 µM, first compound 1 µM
[18] = second compound 1 µM, first compound 0.00316 µM
[19] = second compound 1 µM, first compound 0.01 µM
[20] = second compound 1 µM, first compound 0.0316 µM
[21] = second compound 1 µM, first compound 0.1 µM
[22] = second compound 1 µM, first compound 0.316 µM
[23] = second compound 1 µM, first compound 1 µM
[24] = second compound 3.16 µM, first compound 0.00316 µM
[25] = second compound 3.16 µM, first compound 0.01 µM
[26] = second compound 3.16 µM, first compound 0.0316 µM
[27] = second compound 3.16 µM, first compound 0.1 µM
[28] = second compound 3.16 µM, first compound 0.316 µM
[29] = second compound 3.16 µM, first compound 1 µM
[30] = second compound 10 µM, first compound 0.00316 µM
[31] = second compound 10 µM, first compound 0.01 µM
[32] = second compound 10 µM, first compound 0.0316 µM
[33] = second compound 10 µM, first compound 0.1 µM
[34] = second compound 10 µM, first compound 0.316 µM
[35] = second compound 10 µM, first compound 1 µM

Row | SMILES | IC50 [1] [µM] | IC50 [2] [µM] | IC50 [3] [µM] | IC50 [4] [µM] | IC50 [5] [µM] | viability, T/C [6] [%] | viability, T/C [7] [%] | viability, T/C [8] [%] | viability, T/C [9] [%] | viability, T/C [12] [%] | viability, T/C [13] [%] | viability, T/C [14] [%] | viability, T/C [15] [%] | viability, T/C [18] [%] | viability, T/C [19] [%] | viability, T/C [20] [%] | viability, T/C [21] [%] | viability, T/C [24] [%] | viability, T/C [25] [%] | viability, T/C [26] [%] | other results
1 | O=C(C=Cn1cnc(-c2cc(C(F)(F)F)cc(C(F)(F)F)c2)n1)NNc1cnccn1 + NC1CCC(NC2CC2c2ccccc2)CC1 | 0.0254 | 0.0202 | 0.0227 | 0.0164 | 0.0119 | 94.3 | 68.9 | 44.6 | 31.8 | 97.4 | 61.9 | 42.1 | 30.7 | 90.8 | 63.4 | 42.6 | 34.4 | 81 | 51.6 | 43.6 | viability, T/C [10]: 21%; viability, T/C [11]: 17.9%; viability, T/C [16]: 21.2%; viability, T/C [17]: 18.6%; viability, T/C [22]: 21.6%; viability, T/C [23]: 15.7%; viability, T/C [27]: 31.7%; viability, T/C [28]: 20.8%; viability, T/C [29]: 14.9%; viability, T/C [30]: 74%; viability, T/C [31]: 48.3%; viability, T/C [32]: 37.5%; viability, T/C [33]: 35.1%; viability, T/C [34]: 19.9%; viability, T/C [35]: 16.9%
2 | O=C(C=Cn1cnc(-c2cc(C(F)(F)F)cc(C(F)(F)F)c2)n1)NNc1cnccn1 | – | – | – | – | – | – | – | – | – | – | – | – | – | – | – | – | – | – | – | – | viability, T/C (compound 0.00316 µM): 90.7% and 92.3%; viability, T/C (compound 0.01 µM): 61.1% and 63.3%; viability, T/C (compound 0.0316 µM): 39.5% and 47.2%; viability, T/C (compound 0.1 µM): 29% and 39.9%; viability, T/C (compound 0.316 µM): 20.6% and 32.5%; viability, T/C (compound 1 µM): 15.3% and 25.6%; IC50 (curve of compound): 0.0185 µM and 0.0276 µM
3 | CC(C)CC(NC(=O)C(Cc1ccccc1)NC(=O)c1cnccn1)B(O)O (configuration not stated) + NC1CC1c1ccc(-c2cccc(O)c2)cc1 | 0.00371 | 0.00352 | 0.00341 | 0.00323 | 0.00235 | 55.5 | 11.2 | 1.11 | 0.47 | 53.5 | 9.41 | 1.04 | 0.33 | 51.8 | 10.7 | 1.17 | 0.5 | 50.4 | 9.96 | 1.23 | viability, T/C (second compound 0.1 µM, first compound 0.000316 µM): 114%; viability, T/C (second compound 0.1 µM, first compound 0.001 µM): 110%; viability, T/C (second compound 0.316 µM, first compound 0.000316 µM): 114%; viability, T/C (second compound 0.316 µM, first compound 0.001 µM): 111%; viability, T/C (second compound 1 µM, first compound 0.000316 µM): 114%; viability, T/C (second compound 1 µM, first compound 0.001 µM): 109%; viability, T/C (second compound 3.16 µM, first compound 0.000316 µM): 105%; viability, T/C (second compound 3.16 µM, first compound 0.001 µM): 110%; viability, T/C [27]: 0.53%; viability, T/C (second compound 10 µM, first compound 0.000316 µM): 102%; viability, T/C (second compound 10 µM, first compound 0.001 µM): 99.6%; viability, T/C [30]: 32.9%; viability, T/C [31]: 6.5%; viability, T/C [32]: 0.86%; viability, T/C [33]: 0.34%
4 | COc1cc(Nc2ncc3c(n2)-c2ccc(Cl)cc2C(c2c(F)cccc2OC)=NC3)ccc1C(=O)O + NC1CC1c1ccc(-c2cccc(O)c2)cc1 | 0.584 | 0.638 | 0.431 | 0.588 | 0.955 | 96.3 | 86.8 | 69 | 65 | 105 | 94.5 | 77 | 67.1 | 93.3 | 83.6 | 70.3 | 66.9 | 89.7 | 86.1 | 68.5 | viability, T/C [10]: 55.5%; viability, T/C [11]: 45.4%; viability, T/C [16]: 55.4%; viability, T/C [17]: 46.4%; viability, T/C [22]: 52%; viability, T/C [23]: 42.2%; viability, T/C [27]: 66.1%; viability, T/C [28]: 56.9%; viability, T/C [29]: 44.7%; viability, T/C [30]: 84.6%; viability, T/C [31]: 77.7%; viability, T/C [32]: 67.9%; viability, T/C [33]: 72.2%; viability, T/C [34]: 56.7%; viability, T/C [35]: 49.4%
